GI50 and TGI data for three compounds are collected here from PubChem BioAssay (NCI).

What all share (experiment): NCI-60 cell line screen, 48 h
The subject of test [1] is SK-MEL-2 melanoma.
Test [2] concerns SF-539 CNS.
The subject of test [3] is OVCAR-5 ovarian.
Test [4] concerns SR leukemia.
Test [5] has as its system OVCAR-3 ovarian.
Test [6] has as its system UACC-257 melanoma.
The test system of test [7] is OVCAR-8 ovarian.
Test [8] relates to OVCAR-4 ovarian.
The subject of test [9] is SK-OV-3 ovarian.
Test [10] relates to IGROV1 ovarian.

The structures appear in SMILES notation.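 The compound was tested at five concentrations on cells cultured in 96-well plates, with a 48-hour exposure period. GI50 is the concentration that inhibits growth by half. TGI marks complete inhibition of growth.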

In the case of `C=C1CCC2C3(C)COC(c4ccc(SC)cc4)OC3CCC2(C)C1C/C=C1/C(=O)OCC1O` (stereo not given), the GI50 was 3.73 µM in [1]; 4.75 µM in [2]; 10.3 µM in test [3]; 2.53 µM in test [4]; 2.8 µM in test [5]; 4.17 µM in [6]. The GI50 in test [7] was 2.14 µM; in test [8] it was 5.81 µM; in [9], 16.3 µM; in test [10] it was 4.3 µM. For the same compound, the TGI worked out at 15.5 µM in test [1]; 9.38 µM in test [2]; 25.2 µM in test [3]; 8.04 µM in test [4]; 6.91 µM in [5]; 17.4 µM in test [6]. Besides, the TGI in [7] is 6.56 µM; in test [8], 18.7 µM; in test [9], 32 µM; in [10], 15.9 µM.
Take `CC(=O)OC(C)(C)N=Nc1ccc(Br)cc1`: the TGI in test [1] is greater than 100 µM; in test [2], greater than 100 µM; in test [3], greater than 100 µM; in [4] it was 43.3 µM; in [5], greater than 100 µM; in [6] it was 66.2 µM. For the same compound, the TGI in test [7] is 64.1 µM; in [8] it was greater than 100 µM; in test [9], greater than 100 µM; in test [10], greater than 100 µM.
Consider `CC(=O)OC[C@]12CC[C@@H]([C@@H](C)C(N)=O)[C@@H]1[C@H]1CC[C@@H]3[C@@]4(C)CC[C@H](OC(C)=O)C(C)(C)[C@@H]4CC[C@@]3(C)[C@]1(C)CC2`, for which the GI50 is 10.8 µM in test [1]; 5.52 µM in test [2]; 14.4 µM in test [3]; 3.32 µM in [4]; 3.95 µM in test [5]; 4.83 µM in test [6]. Also, the GI50 in test [7] is 5.44 µM; in [8], 4.72 µM; in test [9], 13.4 µM; in test [10], 13.2 µM. Moreover, the TGI in test [1] stood at 27.5 µM; in test [2] it was 17.7 µM; in test [3], 32.2 µM; in [4], 23.5 µM; in test [5], 13.3 µM; in [6], 22.7 µM. The TGI in test [7] came out at 25.2 µM; in test [8] it was 18.5 µM; in test [9], 64 µM; in test [10], 30 µM.
